Assay results as given in patent US6660910B1, “Selection marker” (Syngenta Mogen B.V., priority 1997, dated 2003).

Key:
[1] = system: stem segments of Solanum tuberosum cv. Kardal; experiment: Transformation of potato stem segments with selection on cyanamide or kanamycin; type: cell-based
Experimental: Described below is the method used for transformation of stem segments of Solanum tuberosum cv. Kardal using Agrobacterium tumefaciens. Nodal explants from in vitro grown potato plants were used 3 to 8 weeks after transfer. The plants were grown on Multiplication Medium (MUM) under a 16 h light period (1700 lux) at 24° C. and a 8 h dark period at 21° C. (The various media can be found in Table 2). Stem segments of approximately 5 mm were cut on sterile filter paper soaked with Washing Medium (WAM) and collected in a flask containing Washing Medium. For approximately 300 explants the Washing Medium was replaced by Pre cultivation Medium (PRM). The flasks were cultured at 80 rpm at the same culture conditions as described above for approximately 24 h. All binary vectors used in this study contained the nptII gene as a plant selectable marker and the nptIII as bacterial selectable marker. Plasmid pMOG410 additionally harbored a chimeric gus gene containing an intron (Vancanneyt et al. Mol. Gen. Genet., 220, 245-250, 1990). Plasmid pMOG1156 additionally harbored the gus gene and the chimeric cah gene encoding cyanamide hydratase. Plasmid pMOG874 additionally harbored the cah gene. Plasmids were maintained in E.coli and A. tumefaciens under kanamycin selection.
The Agrobacterium strain used in this study harbored a rifampicin selection marker in a C58 chromosomal background. The construction of the helper strain EHA105 is described by Hood et al. (1993), Transg. Res. 2, 208-218.
Agrobacteria were grown overnight in LB medium with antibiotics (rifampicin 20 mg/l, kanamycin 100 mg/l). The overnight culture was diluted to OD600=0.1 and grown to OD600=0.3 in LB without antibiotics in approximately 2 h time. Bacterial suspensions were centrifuged at 1600×g for 15 minutes at room temperature. Bacteria were resuspended in Washing Medium and used for cocultivation experiments. The Pre cultivation Medium was removed from the flasks and replaced by the Agrobacterium suspension. The flasks were incubated for 20 minutes after which the explants were rinsed twice with Washing Medium. The explants were dried on sterile filter paper and incubated for 48 h on plates containing Cocultivation Medium (COM). Then, the explants were transferred to Post cultivation Medium (POM) and incubated for 72 h. The explants were then transferred to Shoot inducing Medium (SIM) containing several concentrations cyanamide or kanamycin. After two weeks the explants were subcultured on the same medium and approximately three weeks later the explants were placed on Shoot elongation Medium (SEM) containing cyanamide or kanamycin as mentioned above. When shoots were large enough to cut they were transferred to Root inducing Medium (RIM). Shoots that were able to root were then transferred to Root inducing Medium containing 50 mg/l cyanamide or 30 mg/l kanamycin. Simultaneously the transgenic nature of the shoots was determined by testing leaflets of the rooted shoots for expression of the gus gene using a histochemical GUS assay. It appeared that for pMOG1156 rooting of transgenic shoots on medium containing cyanamide was completely correlated with expression of the gus gene.

[2] = system: cotyledons of Lycopersicon esculentum cv. Money Maker; experiment: Transformation of tomato cotyledon explants with selection on cyanamide or kanamycin; type: cell-based
Experimental: Described below is the method used for transformation of cotyledons of Lycopersicon esculentum cv. Money Maker using Agrobacterium tumefaciens. The binary vectors and Agrobacteria strains for this transformation method are identical to those described above. Tomato seedlings were germinated on Germination Medium (GEM) under a 16 h light period (1700 lux) at 24° C. and a 8 h dark period at 21° C. (The contents of the various media can be found in Table 4). Cotyledon explants of 5 to 7 day old seedlings were cut on sterile filter paper soaked with Washing Medium (WAM) and placed on plates containing Cocultivation Medium (COM). The plates, each containing approximately 50 explants, were incubated overnight under the same conditions as described above.
The pre incubated explants were carefully submerged in the Agrobacterium inoculum for 20 minutes.
The explants were then blotted dry on sterile filter paper and incubated for 48 h on the second set of Cocultivation plates. In procession the explants were incubated for 72 h on plates containing Postcultivation Medium (POM) after which the explants were transferred to Shoot inducing Medium (SIM) containing several concentrations of cyanamide or kanamycin. Every three weeks the explants were subcultured on the same medium. After approximately 8-12 weeks shoots were excised and placed on Root inducing Medium (RIM). Shoots that were able to root were then transferred to Root inducing Medium containing 50 mg/l cyanamide or 30 mg/l kanamycin. Simultaneously leaflets of the rooted shoots were tested for expression of the gus gene in a histochemical GUS assay.

[3] = pMOG410 (gus-nptII), Kanamycin 50 mg/l during regeneration, 58 inoculated explants
[4] = pMOG1156 (cah-gus-nptII), Kanamycin 50 mg/l during regeneration, 48 inoculated explants
[5] = pMOG410 (gus-nptII), Kanamycin 100 mg/l during regeneration, 30 inoculated explants
[6] = pMOG1156 (gus-nptII-cah), Kanamycin 100 mg/l during regeneration, 30 inoculated explants
[7] = pMOG410 (gus-nptII), Cyanamide 20 mg/l during regeneration, 62 inoculated explants
[8] = pMOG410 (gus-nptII), Cyanamide 30 mg/l during regeneration, 62 inoculated explants
[9] = pMOG410 (gus-nptII), Cyanamide 40 mg/l during regeneration, 62 inoculated explants
[10] = pMOG1156 (cah-gus-nptII), Cyanamide 20 mg/l during regeneration, 48 inoculated explants
[11] = pMOG1156 (cah-gus-nptII), Cyanamide 30 mg/l during regeneration, 48 inoculated explants
[12] = pMOG1156 (cah-gus-nptII), Cyanamide 40 mg/l during regeneration, 48 inoculated explants
[13] = pMOG410 (gus-nptII), Cyanamide 20 mg/l during regeneration, 30 inoculated explants
[14] = pMOG410 (gus-nptII), Cyanamide 30 mg/l during regeneration, 30 inoculated explants
[15] = pMOG410 (gus-nptII), Cyanamide 40 mg/l during regeneration, 30 inoculated explants
[16] = pMOG1156 (gus-nptII-cah), Cyanamide 20 mg/l during regeneration, 30 inoculated explants
[17] = pMOG1156 (gus-nptII-cah), Cyanamide 30 mg/l during regeneration, 30 inoculated explants
[18] = pMOG1156 (gus-nptII-cah), Cyanamide 40 mg/l during regeneration, 30 inoculated explants

NC[C@H]1O[C@H](O[C@H]2[C@H](O)[C@@H](O[C@H]3O[C@H](CO)[C@@H](O)[C@H](N)[C@H]3O)[C@H](N)C[C@@H]2N)[C@H](O)[C@@H](O)[C@@H]1O [Kanamycin]
No. of excised shoots [1, 3]: 24 | No. of gus + shoots [1, 3]: 12 | No. of rooting shoots ([1]; pMOG410 (gus-nptII), Kanamycin 50 mg/l during regeneration, 58 inoculated explants, rooting medium 30 mg/l kanamycin): 13 | No. of excised shoots ([1]; pMOG874 (cah-nptII), Kanamycin 50 mg/l during regeneration, 58 inoculated explants): 34 | No. of rooting shoots ([1]; pMOG874 (cah-nptII), Kanamycin 50 mg/l during regeneration, 58 inoculated explants, rooting medium 30 mg/l kanamycin): 26 | No. of excised shoots [1, 4]: 26 | No. of gus + shoots [1, 4]: 16 | No. of rooting shoots ([1]; pMOG1156 (cah-gus-nptII), Kanamycin 50 mg/l during regeneration, 48 inoculated explants, rooting medium 30 mg/l kanamycin): 16 | No. of excised shoots [2, 5]: 4 | No. of gus + shoots [2, 5]: 3 | No. of rooting shoots ([2]; pMOG410 (gus-nptII), Kanamycin 100 mg/l during regeneration, 30 inoculated explants, rooting medium 30 mg/l kanamycin): 3 | No. of excised shoots ([2]; pMOG874 (cah-nptII), Kanamycin 100 mg/l during regeneration, 35 inoculated explants): 4 | No. of rooting shoots ([2]; pMOG874 (cah-nptII), Kanamycin 100 mg/l during regeneration, 35 inoculated explants, rooting medium 30 mg/l kanamycin): 1 | No. of excised shoots [2, 6]: 5 | No. of gus + shoots [2, 6]: 4 | No. of rooting shoots ([2]; pMOG1156 (gus-nptII-cah), Kanamycin 100 mg/l during regeneration, 30 inoculated explants, rooting medium 30 mg/l kanamycin): 3

N#CN [Cyanamide]
No. of excised shoots [1, 7]: 48 | No. of gus + shoots [1, 7]: 0 | No. of rooting shoots ([1]; pMOG410 (gus-nptII), Cyanamide 20 mg/l during regeneration, 62 inoculated explants, rooting medium 50 mg/l cyanamide): 0 | No. of excised shoots [1, 8]: 10 | No. of gus + shoots [1, 8]: 0 | No. of rooting shoots ([1]; pMOG410 (gus-nptII), Cyanamide 30 mg/l during regeneration, 62 inoculated explants, rooting medium 50 mg/l cyanamide): 0 | No. of excised shoots [1, 9]: 0 | No. of gus + shoots [1, 9]: 0 | No. of rooting shoots ([1]; pMOG410 (gus-nptII), Cyanamide 40 mg/l during regeneration, 62 inoculated explants, rooting medium 50 mg/l cyanamide): 0 | No. of excised shoots ([1]; pMOG874 (cah-nptII), Cyanamide 20 mg/l during regeneration, 58 inoculated explants): 81 | No. of rooting shoots ([1]; pMOG874 (cah-nptII), Cyanamide 20 mg/l during regeneration, 58 inoculated explants, rooting medium 50 mg/l cyanamide): 2 | No. of excised shoots ([1]; pMOG874 (cah-nptII), Cyanamide 30 mg/l during regeneration, 58 inoculated explants): 40 | No. of rooting shoots ([1]; pMOG874 (cah-nptII), Cyanamide 30 mg/l during regeneration, 58 inoculated explants, rooting medium 50 mg/l cyanamide): 8 | No. of excised shoots ([1]; pMOG874 (cah-nptII), Cyanamide 40 mg/l during regeneration, 58 inoculated explants): 10 | No. of rooting shoots ([1]; pMOG874 (cah-nptII), Cyanamide 40 mg/l during regeneration, 58 inoculated explants, rooting medium 50 mg/l cyanamide): 1 | No. of excised shoots [1, 10]: 56 | No. of gus + shoots [1, 10]: 6 | No. of rooting shoots ([1]; pMOG1156 (cah-gus-nptII), Cyanamide 20 mg/l during regeneration, 48 inoculated explants, rooting medium 50 mg/l cyanamide): 6 | No. of excised shoots [1, 11]: 50 | No. of gus + shoots [1, 11]: 12 | No. of rooting shoots ([1]; pMOG1156 (cah-gus-nptII), Cyanamide 30 mg/l during regeneration, 48 inoculated explants, rooting medium 50 mg/l cyanamide): 12 | No. of excised shoots [1, 12]: 15 | No. of gus + shoots [1, 12]: 2 | No. of rooting shoots ([1]; pMOG1156 (cah-gus-nptII), Cyanamide 40 mg/l during regeneration, 48 inoculated explants, rooting medium 50 mg/l cyanamide): 2 | No. of excised shoots [2, 13]: 0 | No. of gus + shoots [2, 13]: 0 | No. of rooting shoots ([2]; pMOG410 (gus-nptII), Cyanamide 20 mg/l during regeneration, 30 inoculated explants, rooting medium 50 mg/l cyanamide): 0 | No. of excised shoots [2, 14]: 3 | No. of gus + shoots [2, 14]: 0 | No. of rooting shoots ([2]; pMOG410 (gus-nptII), Cyanamide 30 mg/l during regeneration, 30 inoculated explants, rooting medium 50 mg/l cyanamide): 0 | No. of excised shoots [2, 15]: 0 | No. of gus + shoots [2, 15]: 0 | No. of rooting shoots ([2]; pMOG410 (gus-nptII), Cyanamide 40 mg/l during regeneration, 30 inoculated explants, rooting medium 50 mg/l cyanamide): 0 | No. of excised shoots ([2]; pMOG874 (cah-nptII), Cyanamide 20 mg/l during regeneration, 35 inoculated explants): 2 | No. of rooting shoots ([2]; pMOG874 (cah-nptII), Cyanamide 20 mg/l during regeneration, 35 inoculated explants, rooting medium 50 mg/l cyanamide): 0 | No. of excised shoots ([2]; pMOG874 (cah-nptII), Cyanamide 30 mg/l during regeneration, 35 inoculated explants): 0 | No. of rooting shoots ([2]; pMOG874 (cah-nptII), Cyanamide 30 mg/l during regeneration, 35 inoculated explants, rooting medium 50 mg/l cyanamide): 0 | No. of excised shoots ([2]; pMOG874 (cah-nptII), Cyanamide 40 mg/l during regeneration, 35 inoculated explants): 1 | No. of rooting shoots ([2]; pMOG874 (cah-nptII), Cyanamide 40 mg/l during regeneration, 35 inoculated explants, rooting medium 50 mg/l cyanamide): 1 | No. of excised shoots [2, 16]: 0 | No. of gus + shoots [2, 16]: 0 | No. of rooting shoots ([2]; pMOG1156 (gus-nptII-cah), Cyanamide 20 mg/l during regeneration, 30 inoculated explants, rooting medium 50 mg/l cyanamide): 0 | No. of excised shoots [2, 17]: 5 | No. of gus + shoots [2, 17]: 0 | No. of rooting shoots ([2]; pMOG1156 (gus-nptII-cah), Cyanamide 30 mg/l during regeneration, 30 inoculated explants, rooting medium 50 mg/l cyanamide): 0 | No. of excised shoots [2, 18]: 5 | No. of gus + shoots [2, 18]: 3 | No. of rooting shoots ([2]; pMOG1156 (gus-nptII-cah), Cyanamide 40 mg/l during regeneration, 30 inoculated explants, rooting medium 50 mg/l cyanamide): 3
